The subject of the assay is SARS-CoV-2. As to the kind of experiment: microbe, parasite or virus in culture. Particulars: Severe acute respiratory syndrome coronavirus 2, Caco-2, 48 h; for inhibition at 10 µM: read-out: % Inh. (% Inhibition of SARS-CoV-2).

Structures can show the parent of a compound that is named as a salt. Where two headings read alike, the source gives them in different places.

Usually inhibition stands for the drop in the measured response relative to a control, in per cent. `C#Cc1cccc(Nc2ncnc3cc4c(cc23)OCCOCCOCCO4)c1` [Icotinib]: the inhibition at 10 µM is 68.1%.

Turning to `CC(C)[C@]12O[C@H]1[C@@H]1O[C@]13[C@]1(O[C@H]1C[C@H]1C4=C(CC[C@@]13C)C(=O)OC4)[C@@H]2O` [Triptolide], the inhibition at 10 µM came out at 90.7%.

For `CCOc1cc2ncc(C#N)c(Nc3ccc(OCc4cccc(F)c4)c(Cl)c3)c2cc1NC(=O)/C=C/CN(C)C` [HKI-357], the inhibition at 10 µM was found to be 77.7%.

As to `C[C@]12CC[C@H](O)C[C@H]1CC[C@@H]1[C@@H]2CC[C@]2(C)[C@@H](C3=CC(=O)OC3)CC[C@]12O` [digitoxigenin], the inhibition at 10 µM worked out at 60%.

In the case of `Cc1[nH]cnc1-c1ccc(Cl)cc1` [lofemizole], the inhibition at 10 µM amounted to 56.3%.

Consider `Cn1c(=O)n(-c2ccc(C(C)(C)C#N)cc2)c2c3cc(-c4cnc5ccccc5c4)ccc3ncc21` [Dactolisib (BEZ235, NVP-BEZ235), Dactolisib], for which the inhibition at 10 µM turned out to be 91.8%.

Turning to `COc1cc2nc(N3CCN(C(=O)c4ccco4)CC3)nc(N)c2cc1OC` [PRAZOSIN HYDROCHLORIDE], the inhibition at 10 µM is 58%.

On to `O=C(c1ccc(F)c(F)c1Nc1ccc(I)cc1F)N1CC(O)([C@@H]2CCCCN2)C1` [Cobimetinib], for which the inhibition at 10 µM amounted to 61.6%.

As for `CCN(CC)Cc1cc(Nc2ccnc3cc(Cl)ccc23)ccc1O` [AMODIAQUINE DIHYDROCHLORIDE], the inhibition at 10 µM worked out at 78.8%.

Turning to `CC(=O)Oc1c(C)cc(OCC(O)CNC(C)C)c(C)c1C` (centres unmarked) [metipranolol], the inhibition at 10 µM came out at 54.6%.

Regarding `N#CC1(c2ccc(NC(=O)c3cccnc3NCc3ccncc3)cc2)CCCC1` [Apatinib mesylate], the inhibition at 10 µM came to 70.9%.

Regarding `COC(=O)Nc1nc2ccc(C(=O)c3cccs3)cc2[nH]1` [nocodazole], the inhibition at 10 µM amounted to 66.1%.

With `Clc1ccc(C(Cn2ccnc2)OCc2ccsc2Cl)c(Cl)c1` (centres unmarked) [TIOCONAZOLE], the inhibition at 10 µM was 50.6%.

Regarding `CCN1CCN(Cc2ccc(-c3cc4c(N[C@H](C)c5ccccc5)ncnc4[nH]3)cc2)CC1` [AEE788], the inhibition at 10 µM amounted to 90.9%.

Regarding `FC(F)c1nc2ccccc2n1-c1nc(N2CCOCC2)nc(N2CCOCC2)n1` [ZSTK474], the inhibition at 10 µM worked out at 90.9%.

For the compound `CNCCCOc1cc(F)c(-c2c(Cl)nc3ncnn3c2N[C@@H](C)C(F)(F)F)c(F)c1` [Cevipabulin], the inhibition at 10 µM came out at 53.6%.

For `CCCn1c(=O)c2[nH]c(-c3ccccc3)nc2n(CCC)c1=O` [1,3-dipropyl-8-phenylxanthine], the inhibition at 10 µM stood at 57.2%.

With `Cc1cc(N)c2ccccc2[n+]1CCCCCCCCCC[n+]1c(C)cc(N)c2ccccc21` [DEQUALINIUM CHLORIDE], the inhibition at 10 µM stood at 65.6%.

With `CC1(C)CC[C@]2(C(=O)O)CC[C@]3(C)[C@H](C(=O)C=C4[C@@]5(C)C=C(C#N)C(=O)C(C)(C)[C@@H]5CC[C@]43C)[C@@H]2C1` [Bardoxolone], the inhibition at 10 µM turned out to be 66%.

As to `C[C@@]1(O)[C@H](O)[C@@H](CO)O[C@H]1n1ccc(N)nc1=O` [NM107, 2′-C-methylcytidine, 2′-C-methylcytidine], the inhibition at 10 µM worked out at 60.1%.

Compound `COc1ccc(Cc2nccc3cc(OC)c(OC)cc23)cc1OC` [PAPAVERINE HYDROCHLORIDE] yielded an IC50 of 0.95 µM. Moreover, the IC50 (read-out: pIC50 (converted)) was 0.955 µM.

Take `CC[C@@]1(O)C(=O)OCc2c1cc1n(c2=O)Cc2cc3ccccc3nc2-1` [camptothecin]: the inhibition at 10 µM was 81.8%.

Take `CC(=O)Nc1cccc(-n2c(=O)n(C3CC3)c(=O)c3c(Nc4ccc(I)cc4F)n(C)c(=O)c(C)c32)c1` [Trametinib]: the inhibition at 10 µM turned out to be 76.6%.

Consider `CN(C)CC[C@H](CSc1ccccc1)Nc1ccc(S(=O)(=O)NC(=O)c2ccc(N3CCN(Cc4ccccc4-c4ccc(Cl)cc4)CC3)cc2)cc1[N+](=O)[O-]` [ABT-737], for which the inhibition at 10 µM turned out to be 63.1%.

Regarding `OCCOc1ccc(/C(=C(/CCCl)c2ccccc2)c2ccccc2)cc1` [Ospemifene], the inhibition at 10 µM turned out to be 52.9%.

In turn, `Cc1nc(C#Cc2ccnc(Cl)c2)c(C)n1-c1ccc(F)cc1` [Basimglurant] had an IC50 of 25.2 µM. In addition, the IC50 (read-out: pIC50 (converted)) was 25.1 µM.

For the compound `C/C(=N\NC(=S)NNC(=S)Nc1ccccc1Cl)c1ccccn1` [N-(2-chlorophenyl)-2-({(2E)-2-[1-(2-pyridinyl)ethylidene]hydrazino}carbothioyl)hydrazinecarbothioamide], the inhibition at 10 µM amounted to 101%.

Consider `CN1CCC(Nc2ncc3ncnc(Nc4ccc(F)c(Cl)c4)c3n2)CC1` [BIBX-1382], for which the inhibition at 10 µM stood at 79.3%.

As to `Cc1ccc(C(=O)N(CCCN)[C@@H](c2nc3cc(Cl)ccc3c(=O)n2Cc2ccccc2)C(C)C)cc1` [Ispinesib (SB-715992), Ispinesib], the inhibition at 10 µM was found to be 91.9%.

Consider `O=C(NCc1ccncc1)C12CC3CC(C1)CC(c1ccc(Cl)cc1)(C3)C2` [ABC294640], for which the IC50 was 38.2 µM and the inhibition at 10 µM is 81.4%. Also, the IC50 (read-out: pIC50 (converted)) is 38 µM.

Turning to `Cc1nc2ccccn2c(=O)c1CCN1CCC(C(=O)c2ccc(F)cc2)CC1` [pirenperone], the inhibition at 10 µM stood at 64.1%.

Regarding `OC[C@H]1O[C@@H](n2cnc3c(NC4CCCC4)nc(Cl)nc32)[C@H](O)[C@@H]1O` [2-chloro-N6-cyclopentyladenosine], the inhibition at 10 µM was found to be 57.7%.

For `O=C(O)c1ccccc1O` [SALICYLIC ACID], the inhibition at 10 µM turned out to be 71.3%.

In the case of `CCc1cc2cc(OC)c(OC)cc2c(Cc2ccccc2)n1` [Moxaverine], the inhibition at 10 µM came to 68.7%.

In the case of `O[C@@H](COc1cccc2ncccc12)CN1CCN([C@@H]2c3ccccc3[C@@H]3[C@H](c4ccccc42)C3(F)F)CC1` [LY335979 (Zosuquidar trihydrochloride), Zosuquidar trihydrochloride], the IC50 is 26.8 µM and the inhibition at 10 µM stood at 93%. The IC50 (read-out: pIC50 (converted)) is 26.9 µM.

With `C[C@]1(O)C[C@@H](c2nc(-c3ccc4ccc(-c5ccccc5)nc4c3)c3c(N)nccn32)C1` [OSI-906 (Linsitinib), Linsitinib], the IC50 was found to be 24.9 µM and the inhibition at 10 µM was 110%. The IC50 (read-out: pIC50 (converted)) was 25.1 µM.

In the case of `O=C(Nc1cc(Cl)cc(Cl)c1O)c1c(O)c(Cl)cc(Cl)c1Cl` [OXYCLOZANIDE], the inhibition at 10 µM came out at 94.4%.

As for `CC(=O)NC(Cc1ccccc1)C(=O)O` (centres unmarked) [AFALANINE], the inhibition at 10 µM is 62.1%.

As for `CC1(C)CC(=O)c2c(C(F)(F)F)nn(-c3ccc(C(N)=O)c(N[C@H]4CC[C@H](O)CC4)c3)c2C1` [SNX-2112], the inhibition at 10 µM turned out to be 96.6%.

With `Clc1ccc(CCC(Cn2ccnc2)Sc2c(Cl)cccc2Cl)cc1` (centres unmarked) [BUTOCONAZOLE], the inhibition at 10 µM amounted to 70.6%.

As to `COc1ccc(N(C)c2nc(C)nc3ccccc23)cc1` [verubulin], the inhibition at 10 µM came to 50.9%.

On to `CCc1nn(CCCN2CCN(c3cccc(Cl)c3)CC2)c(=O)n1CCOc1ccccc1` [NEFAZODONE HYDROCHLORIDE], for which the inhibition at 10 µM is 71.7%.

With `c1ccc(OCc2ccc(CCCN3CCOCC3)cc2)cc1` [Fomocain], the inhibition at 10 µM is 61.1%.

For `Oc1cccc(-c2c3nc(c(-c4cccc(O)c4)c4ccc([nH]4)c(-c4cccc(O)c4)c4nc(c(-c5cccc(O)c5)c5ccc2[nH]5)CC4)C=C3)c1` [Temoporfin], the inhibition at 10 µM stood at 85.9%.

In the case of `Cc1c(-c2ccc(-c3ccccc3F)cc2)nc2ccc(F)cc2c1C(=O)O` [Brequinar sodium salt hydrate], the inhibition at 10 µM worked out at 61%.

Take `O=C1NC(=S)NC(=O)C1C(=O)Nc1ccccc1` [merbarone]: the inhibition at 10 µM was 50.4%.

On to `N#CN1CCCC1` [pyrrolidine-1-carbonitrile], for which the inhibition at 10 µM worked out at 65.9%.

As to `O=C(CC(c1ccccc1)c1ccccc1)N1CCN(C(c2ccccc2)c2ccccc2)CC1` [NP118809], the inhibition at 10 µM is 60.8%.

Consider `CC(C)(C)NC[C@H](O)COc1cccc2c1CCCC2=O` [levobunolol], for which the inhibition at 10 µM was found to be 64.5%.

Regarding `FC(F)(F)c1ccc(/C=C/c2nc(COc3ccc(CCCCn4ccnn4)cc3)co2)cc1` [mubritinib], the inhibition at 10 µM was found to be 82.2%.

Regarding `C=CC(N)CCC(=O)O` (centres unmarked) [Vigabatrin], the inhibition at 10 µM was 52.5%.

`CNC(=O)[C@@H](NC(=O)[C@H](CC(C)C)[C@H](O)C(=O)NO)C(C)(C)C` [Marimastat]: the inhibition at 10 µM is 68.7%.

Take `O=C(/C=C/c1cccnc1)NCCCCC1CCN(C(=O)c2ccccc2)CC1` [FK-866]: the inhibition at 10 µM is 50.9%.

For `COc1ccc(S(=O)(=O)N2CCC[C@H]2C(=O)Nc2cc(C)cc(C)c2)cc1` [ACT-462206], the inhibition at 10 µM stood at 53.8%.

Regarding `Cc1cc2c(C(C)C)c(O)c(O)c(C=O)c2c(O)c1-c1c(C)cc2c(C(C)C)c(O)c(O)c(C=O)c2c1O` [gossypol], the inhibition at 10 µM came out at 66.3%.

As for `Cc1cc(C(C#N)c2ccc(Cl)cc2)c(Cl)cc1NC(=O)c1cc(I)cc(I)c1O` (centres unmarked) [CLOSANTEL], the inhibition at 10 µM came to 80%.

Turning to `c1ccc(C(O[C@@H]2CCCN(CCc3ccc4c(c3)OCO4)C2)c2ccccc2)cc1` [zamifenacin], the inhibition at 10 µM came to 58.3%.

For the compound `CCNC(=O)Nc1ccc(-c2nc3c(c(N4CCOC[C@@H]4C)n2)CCN(C2COC2)C3)cc1` [GDC-0349], the inhibition at 10 µM came to 83.8%.

As to `CCOC(=O)C1=C(C)NC(C)=C(C(=O)OC)C1c1cccc(Cl)c1Cl` (centres unmarked) [FELODIPINE], the inhibition at 10 µM was found to be 51.2%.

For the compound `C[C@H](/C=C/[C@H](C)C(C)(C)O)[C@H]1CC[C@H]2/C(=C/C=C3C[C@@H](O)C[C@H](O)C3)CCC[C@]12C` [PARICALCITOL], the inhibition at 10 µM turned out to be 86%.

Take `CN(C)C(=O)C(CCN1CCC(O)(c2ccc(Cl)cc2)CC1)(c1ccccc1)c1ccccc1` [LOPERAMIDE HYDROCHLORIDE]: the inhibition at 10 µM amounted to 58.9%.

For the compound `NCCNC(=O)c1ccc(Cl)cn1` [lazabemide], the inhibition at 10 µM turned out to be 67.9%.

Consider `CS[C@H]1SC[C@H]2C(=O)N(C)[C@@H](C(C)C)C(=O)OC[C@@H](NC(=O)c3cnc4ccccc4n3)C(=O)N[C@@H](C)C(=O)N(C)[C@@H]1C(=O)N(C)[C@@H](C(C)C)C(=O)OC[C@@H](NC(=O)c1cnc3ccccc3n1)C(=O)N[C@@H](C)C(=O)N2C` [Echinomycin], for which the inhibition at 10 µM was found to be 77.5%.

The values above are taken from patent US20230126310A1 (priority 2020, published 2023).
